Data taken from patent publication US11634436B2, “Pyridine lactam compounds and methods of use thereof” (Genentech, Inc., priority 2018, dated 2023).
pKi: −log10 of the molar value.

Target: T1, human RIP1 kinase domain (2-375) (Homo sapiens, UniProt Q13546)
T1 construct: Purified human RIP1 kinase domain (2-375) (50 nM) derived from a baculovirus-infected insect cell expression system; made in house; host or cells: baculovirus-infected insect cells
T1 sequence (Q13546 2-375): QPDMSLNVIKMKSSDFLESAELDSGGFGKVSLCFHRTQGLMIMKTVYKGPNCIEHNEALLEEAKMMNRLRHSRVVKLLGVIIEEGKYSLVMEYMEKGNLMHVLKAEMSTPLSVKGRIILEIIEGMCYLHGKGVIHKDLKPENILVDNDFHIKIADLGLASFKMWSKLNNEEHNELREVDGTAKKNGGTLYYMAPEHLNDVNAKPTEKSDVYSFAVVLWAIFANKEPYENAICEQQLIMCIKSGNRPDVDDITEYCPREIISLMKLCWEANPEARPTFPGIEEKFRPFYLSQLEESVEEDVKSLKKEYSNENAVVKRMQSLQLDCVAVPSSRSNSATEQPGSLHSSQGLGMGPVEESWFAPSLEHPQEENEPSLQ
Test: RIP1 kinase inhibition biochemical assay (Transcreener ADP, fluorescence polarization)
Details: tight-binding apparent inhibition constant (Ki app, Morrison equation); 50 nM enzyme, 50 uM ATP, 2 hours incubation
Experimental: RIP1 Kinase Inhibition Assays (Biochemical Assay)
The compounds of the present invention were tested for their capacity to inhibit RIP1K activity as described below.
Enzyme assay: The ability of the receptor interacting protein kinase (RIPK1) to catalyze the hydrolysis of adenosine-5′-triphosphate (ATP) is monitored using the Transcreener ADP (adenosine-5′-diphosphate) assay (BellBrook Labs). Purified human RIP1 kinase domain (2-375) (50 nM) derived from a baculovirus-infected insect cell expression system is incubated with test compounds for 2 hours in 50 mM Hepes buffer (pH 7.5) containing 30 mM MgCl2, 1 mM dithiothreitol, 50 uM ATP, 0.002% Brij-35, and 0.5% dimethyl sulfoxide (DMSO). Reactions are quenched by the addition of 1× Bell Brooks Stop buffer B (20 mM Hepes (ph7.5), 40 mM ethylenediaminetetraacetic acid and 0.02% Brij-35) containing an additional 12 mM EDTA and 55 ug/mL ADP2 antibody and 4 nM ADP-AlexaFluor® 633 tracer. The tracer bound to the antibody is displaced by the ADP generated during the RIP1K reaction, which causes a decrease in fluorescence polarization that is measured by laser excitation at 633 nm with a FP microplate reader M1000. Fractional activity was plotted against test article concentration. Using Genedata Screener software (Genedata; Base1, Switzerland), the data were fit to the tight-binding apparent inhibition constant (Ki^app) Morrison equation [Williams, J. W. and Morrison, J. F. (1979) The kinetics of reversible tight-binding inhibition. Methods Enzymol 63: 437-67]. The following equation was used to calculate fractional activity and Ki^app:
[formula] where [E]T and [I]T are the total concentrations of active enzyme and test article, respectively.
Exemplary compounds of the present invention are provided in Table 1 along with their physiochemical characterization and in vitro RIP1 kinase inhibitory activity data. “Method” in the first column of each table refers to the synthetic method(s) used to prepare each compound as shown in the Examples above. In certain examples, chiral column retention times (min) are provided for certain stereoisomers. Unless otherwise specified, the stereochemistry shown in each structure represents relative configuration of a single stereoisomer, and absolute configuration (i.e., “R” and/or “S”) is arbitrarily assigned. In some embodiments, where the Method is described to include the separation of stereoisomers, a single stereoisomer of a compound of Table 1 is provided.

pKi | Compound
7.72 | CN1C(=O)[C@@H](NC(=O)c2cc3n(n2)CCO[C@H]3c2ccccc2)COc2cccnc21 (single isomer, unassigned) [Example 5]
8.28 | CN1C(=O)[C@@H](NC(=O)c2cc3n(n2)[C@H](c2ccccc2)C[C@@H]3F)COc2cccnc21 (single isomer, unassigned) [Example 1]
8.36 | CN1C(=O)[C@@H](NC(=O)c2cc3n(n2)[C@H](c2ccccc2)C[C@@H]3F)COc2ccccc21 (single isomer, unassigned) [Example 11]
5.27 | CN1C(=O)[C@@H](NC(=O)c2cc3n(n2)[C@@H](c2ccccc2)C[C@H]3F)COc2ccccc21 (single isomer, unassigned) [Example 10]
7.55 | [2H]C([2H])([2H])N1C(=O)[C@@H](NC(=O)c2cc3n(n2)CCO[C@H]3c2ccccc2)COc2cccnc21 [Example 7, (4S)-4-phenyl-N-[(3S)-4-oxo-5-(trideuteriomethyl)-2,3-dihydropyrido[3,2-b][1,4]oxazepin-3-yl]-6,7-dihydro-4H-pyrazolo[5,1-c][1,4]oxazine-2-carboxamide]

More lines, now with the values behind:

Compound | pKi
CCC(F)(F)n1ncc2cnc(C(=O)N[C@H]3COc4cccnc4N(C)C3=O)cc21 [Example 12, 1-(1,1-difluoropropyl)-N-[(3S)-5-methyl-4-oxo-2,3-dihydropyrido[3,2-b][1,4]oxazepin-3-yl]pyrazolo [4,3-c]pyridine-6-carboxamide] | 8.30
CCC(F)(F)n1ncc2cnc(C(=O)N[C@H]3COc4cccnc4N(C)C3=O)nc21 [Example 8, 1-(1,1-difluoropropyl)-N-[(3S)-5-methyl-4-oxo-2,3-dihydropyrido[3,2-b][1,4]oxazepin-3-yl]pyrazolo [3,4-d]pyrimidine-6-carboxamide] | 7.74
C[C@H]1Oc2cccnc2N(C)C(=O)[C@H]1NC(=O)c1cc2n(n1)CCO[C@H]2c1ccccc1 [Example 6, (4S)-4-phenyl-N-[(2R,3S)-2,5-dimethyl-4-oxo-2,3-dihydropyrido[3,2-b][1,4]oxazepin-3-yl]-6,7-dihydro-4H-pyrazolo[5,1-c][1,4]oxazine-2-carboxamide] | 8.15
CN1C(=O)[C@@H](NC(=O)c2cc3n(n2)CCO[C@H]3c2ccccc2F)COc2cccnc21 (single isomer, unassigned) [Example 3] | 7.62
CN1C(=O)[C@@H](NC(=O)c2ncc3cnn(C4CCCC4)c3n2)COc2cccnc21 [Example 9, 1-cyclopentyl-N-[(3S)-5-methyl-4-oxo-2,3-dihydropyrido[3,2-b][1,4]oxazepin-3-yl]pyrazolo [3,4-d]pyrimidine-6-carboxamide] | 7.96
CN1C(=O)[C@@H](NC(=O)c2cc3n(n2)CCO[C@@H]3c2ccccc2F)COc2cccnc21 (single isomer, unassigned) [Example 4] | 6.02
CC(C)n1ncc2cnc(C(=O)N[C@H]3COc4cccnc4N(C)C3=O)nc21 [Example 2, 1-isopropyl-N-[(3S)-5-methyl-4-oxo-2,3-dihydropyrido[3,2-b][1,4]oxazepin-3-yl]pyrazolo[3,4-d]pyrimidine-6-carboxamide] | 7.85
